According to patent US8927580B2, “Thiosemicarbazone compounds and use in the treatment of cancer” (Oncochel Therapeutics LLC, priority 2010, dated 2015):

Tests used:
[1] = DMS-53 xenograft oral study: body and organ weights, haematology, biochemistry, histology; assay type: in vivo, nude mice (BALBc nu/nu); settings: for Alanine Aminotransferase (ALT) / Albumin / Alkaline Phosphatase (ALP) / Cholesterol / Haematocrit (HCT) / Haemoglobin (HGB) / Platelets / Serum Iron / Total Iron-Binding Capacity (TIBC) / Triglyceride / Unsaturated Iron-Binding Capacity (UIBC) / White Blood Cell (WBC): oral gavage 21 days; for Red Blood Cell (RBC): oral gavage for 21 days, 3 days/week; for Body weight (% initial) / Brain weight / Heart weight / Kidney weight / Liver weight / Lung weight / Spleen weight: oral
[2] = system: SK-N-MC neuroepithelioma cell line; experiment: MTT anti-proliferative assay in SK-N-MC cells; assay type: cell-based, human; settings: Homo sapiens, 72 h at 37° C., mean±SD (3 experiments)
Procedure: The cells were maintained in minimum essential media (MEM; Invitrogen, CA, USA) which contained 10% fetal calf serum (FCS; JRH Biosciences, Kansas, USA), 1% non-essential amino acids (Gibco, Victoria, Australia), 1% penicillin/streptomycin/glutamine (Gibco, VIC, Australia) and fungizone ([…]; Squibb Pharmaceuticals, Montreal, Canada).
The ability of the compounds to inhibit cellular proliferation was assessed initially in SK-N-MC cells by the MTT assay.
Table 1. […] Cells were seed and allowed to attach to wells for 24 h and then incubated for 72 h at 37° C. with control medium or the chelators.

[3] = system: DMS-53 human lung carcinoma; experiment: DMS-53 xenograft in nude mice, oral gavage: tumour growth; assay type: in vivo, nude mice (BALBc nu/nu); settings: for Tumour weight: 21 days; for net tumour size (% of initial tumour volume): after 21 days
[4] = system: DMS-53 human lung carcinoma; experiment: DMS-53 xenograft in nude mice, i.v. administration: tumour growth; assay type: in vivo, nude mice (BALBc nu/nu); settings: after 25 days, 4 or 6 mg/kg
[5] = system: SK-N-MC neuroepithelioma cells; experiment: Iron uptake assay (59Fe uptake from 59Fe-transferrin); assay type: cell-based, human; settings: 25 μM chelator, 3 h at 37° C., 59Fe-Tf
Procedure: Cells were cultured in the same way as for the iron efflux experiments. […] At the end of the incubation the culture dishes were placed on ice, the media aspirated, and the cells washed 4 times with ice cold PBS. Protease (1 mL; 1 mg/mL; Sigma-Aldrich, NSW, Australia) solution was added to each plate and allowed to incubate on ice for 30 min. This facilitated the removal of membrane bound ^59Fe-Tf. Cells were then scraped from the plastic surface using a Teflon spatula and collected in Eppendorf tubes. These were centrifuged at 10000 rpm and 4° C. for 3 min. The supernatant was then transferred into counting tubes and the cell pellet resuspended in PBS before also being transferred into another set of counting tubes. Radioactivity was measured using a Wallac Wizard 3″ Gamma Counter (PerkinElmer, MA, USA). Results are expressed as average ^59Fe content of the cellular fraction as a percentage of the control value.

[6] = system: SK-N-MC neuroepithelioma cells; experiment: Iron efflux assay (59Fe release from pre-labeled cells); assay type: cell-based, human; settings: 25 μM chelator, 3 h at 37° C.
Procedure: The culture dishes were then placed on ice, the supernatant containing excess ^59Fe-Tf was aspirated and the cells washed 4 times with ice-cold PBS. […] After 3 h the culture dishes were again placed on ice, the media was collected in counting tubes and this provided a measurement of released ^59Fe. Ice-cold PBS (1 mL) was added to plates containing cells and cells were scraped from the plastic surface using a Teflon spatula and also collected in counting tubes. These tubes represent the intracellular ^59Fe content. Results are expressed as total ^59Fe released as a percentage of total ^59Fe present. Radioactivity was measured using a Wallac Wizard 3″ Gamma Counter (PerkinElmer, MA, USA).

Albumin ([1]; 2.5 mg/kg): 31.3 g/L | Alkaline Phosphatase (ALP) ([1]; 2.5 mg/kg): 85.7 U/L | Cholesterol ([1]; 2.5 mg/kg): 2.44 mmol/L | Haematocrit (HCT) ([1]; 2.5 mg/kg): 44% | Haemoglobin (HGB) ([1]; 2.5 mg/kg): 148 g/L | Platelets ([1]; 2.5 mg/kg): 1047 10^9/L | Serum Iron ([1]; 2.5 mg/kg): 25.5 µmol/L | Total Iron-Binding Capacity (TIBC) ([1]; 2.5 mg/kg): 56.7 µmol/L | Triglyceride ([1]; 2.5 mg/kg): 1.00 mmol/L | Unsaturated Iron-Binding Capacity (UIBC) ([1]; 2.5 mg/kg): 57.9 µmol/L | White Blood Cell (WBC) ([1]; 2.5 mg/kg): 2.68 10^9/L | Albumin ([1]; 5 mg/kg): 30.4 g/L | Alkaline Phosphatase (ALP) ([1]; 5 mg/kg): 61.7 U/L | Cholesterol ([1]; 5 mg/kg): 2.63 mmol/L | Haematocrit (HCT) ([1]; 5 mg/kg): 43% | Haemoglobin (HGB) ([1]; 5 mg/kg): 143 g/L | Platelets ([1]; 5 mg/kg): 973 10^9/L | Serum Iron ([1]; 5 mg/kg): 31.0 µmol/L | Total Iron-Binding Capacity (TIBC) ([1]; 5 mg/kg): 53.1 µmol/L | Triglyceride ([1]; 5 mg/kg): 0.57 mmol/L | Unsaturated Iron-Binding Capacity (UIBC) ([1]; 5 mg/kg): 66.9 µmol/L | White Blood Cell (WBC) ([1]; 5 mg/kg): 1.80 10^9/L | Albumin ([1]; 7.5 mg/kg): 31.3 g/L | Alkaline Phosphatase (ALP) ([1]; 7.5 mg/kg): 87.2 U/L | Cholesterol ([1]; 7.5 mg/kg): 2.78 mmol/L | Haematocrit (HCT) ([1]; 7.5 mg/kg): 45% | Haemoglobin (HGB) ([1]; 7.5 mg/kg): 151 g/L | Platelets ([1]; 7.5 mg/kg): 834 10^9/L | Serum Iron ([1]; 7.5 mg/kg): 32.8 µmol/L | Total Iron-Binding Capacity (TIBC) ([1]; 7.5 mg/kg): 56.8 µmol/L | Triglyceride ([1]; 7.5 mg/kg): 0.67 mmol/L | Unsaturated Iron-Binding Capacity (UIBC) ([1]; 7.5 mg/kg): 64.9 µmol/L | White Blood Cell (WBC) ([1]; 7.5 mg/kg): 3.08 10^9/L | Albumin ([1]; 10 mg/kg): 29.3 g/L | Alkaline Phosphatase (ALP) ([1]; 10 mg/kg): 89.5 U/L | Cholesterol ([1]; 10 mg/kg): 2.46 mmol/L | Haematocrit (HCT) ([1]; 10 mg/kg): 44% | Haemoglobin (HGB) ([1]; 10 mg/kg): 142 g/L | Platelets ([1]; 10 mg/kg): 917 10^9/L | Serum Iron ([1]; 10 mg/kg): 21.2 µmol/L | Total Iron-Binding Capacity (TIBC) ([1]; 10 mg/kg): 60.2 µmol/L | Triglyceride ([1]; 10 mg/kg): 0.94 mmol/L | Unsaturated Iron-Binding Capacity (UIBC) ([1]; 10 mg/kg): 50.1 µmol/L | White Blood Cell (WBC) ([1]; 10 mg/kg): 3.27 10^9/L | Red Blood Cell (RBC) ([1]; 2.5 mg/kg): 10.55 10^12/L | Red Blood Cell (RBC) ([1]; 5 mg/kg): 10.26 10^12/L | Red Blood Cell (RBC) ([1]; 7.5 mg/kg): 10.85 10^12/L | Red Blood Cell (RBC) ([1]; 10 mg/kg): 10.18 10^12/L | Brain weight ([1]; 2.5 mg/kg): 0.372 ± 0.006 g | Heart weight ([1]; 2.5 mg/kg): 0.078 ± 0.002 g | Kidney weight ([1]; 2.5 mg/kg): 0.194 ± 0.005 g | Liver weight ([1]; 2.5 mg/kg): 0.87 ± 0.02 g | Lung weight ([1]; 2.5 mg/kg): 0.121 ± 0.005 g | Spleen weight ([1]; 2.5 mg/kg): 0.075 ± 0.004 g | Brain weight ([1]; 5 mg/kg): 0.367 ± 0.007 g | Heart weight ([1]; 5 mg/kg): 0.078 ± 0.002 g | Kidney weight ([1]; 5 mg/kg): 0.187 ± 0.006 g | Liver weight ([1]; 5 mg/kg): 0.77 ± 0.02 g | Lung weight ([1]; 5 mg/kg): 0.117 ± 0.003 g | Spleen weight ([1]; 5 mg/kg): 0.075 ± 0.004 g | Brain weight ([1]; 7.5 mg/kg): 0.356 ± 0.007 g | Heart weight ([1]; 7.5 mg/kg): 0.092 ± 0.005 g | Kidney weight ([1]; 7.5 mg/kg): 0.193 ± 0.008 g | Liver weight ([1]; 7.5 mg/kg): 0.83 ± 0.03 g | Lung weight ([1]; 7.5 mg/kg): 0.119 ± 0.004 g | Spleen weight ([1]; 7.5 mg/kg): 0.061 ± 0.009 g | IC50 [2]: 4.1 nM
SMILES: CCN(C)C(=S)NN=C(c1ccccn1)c1ccccn1 [Dp4e4mT, di-2-pyridylketone 4-ethyl-4-methyl-3-thiosemicarbazone]
Alanine Aminotransferase (ALT) ([1]; 2.5 mg/kg): 73.1 U/L | Alanine Aminotransferase (ALT) ([1]; 5 mg/kg): 44.9 U/L | Alanine Aminotransferase (ALT) ([1]; 7.5 mg/kg): 57.2 U/L | Alanine Aminotransferase (ALT) ([1]; 10 mg/kg): 63.4 U/L | Body weight (% initial) ([1]; 2.5 mg/kg): 94.1 ± 1.3 % initial | Body weight (% initial) ([1]; 5 mg/kg): 91.6 ± 2.4 % initial | Body weight (% initial) ([1]; 7.5 mg/kg): 91.6 ± 2.2 % initial | Tumour weight ([3]; 2.5 mg/kg): 0.63 ± 0.17 g | Tumour weight ([3]; 5 mg/kg): 0.89 ± 0.14 g | Tumour weight ([3]; 7.5 mg/kg): 0.60 ± 0.15 g | net tumour size (% of initial tumour volume) ([3]; 7.5 mg/kg): 404% | net tumour size (% of initial tumour volume) ([3]; 10 mg/kg): 284% | net tumour size (% of the initial tumour volume) [4]: 120-122% | cellular 59Fe uptake (% of the control) [5]: 12% | cellular 59Fe mobilised (59Fe released as percentage of total 59Fe) [6]: 38%
